# Where two headings read alike, the source gives them in different places. Where a SMILES comes first, the peptide text is derived from it. Bridges are numbered along the chain shown (N, C = ends). [ ]: non-standard residue; d: D form.
# Biological target: L. monocytogenes AgrC (Listeria monocytogenes serovar 1/2a, UniProt Q8YAR5)
# Experiment: Fluorescence (agr-GFP) reporter agonism assay, ΔagrD reporter strain
# Format: cell-based
# Set-up: Emax: dose or concentration left out as unconfirmed
# Conditions: for loss in potency: relative to native AIP
# Description: Construction of Listeria agr Reporter Strains. A gene block was designed and purchased from Integrated DNA Technologies to contain an EagI recognition site, the PII promoter of the agr system, the 3′ UTR of hly, super folder GFP, and a SaII recognition site. The gene block was digested with EagI and SaII, cloned into an EagI/SaII-cut pAM401 plasmid resulting in the plasmid pAM401-KW1, and then transformed into E. coli XL1-Blue competent cells. The insertion into pAM401 was confirmed using Kapa polymerase and primers DAP337 and DAP338, and additional confirmation via commercial sequencing. Purified plasmid was transformed into the conjugative E. coli S17 strain, which was used to conjugate to EGD-e and EGD-e ΔagrD to generate the agr-GFP reporter strains EGD-e:pAM401-KW1 and EGD-e ΔagrD:pAM401-KW1. Conjugation was verified using primers DAP337 and DAP338.
# Fluorescence reporter assay protocol. For QS (agr) reporter assays, peptide stock solutions in DMSO (1 mM) were serially diluted in DMSO, and 2 μL of solution was added to each well in a black 96-well plate (polystyrene microtiter plate, Costar). Agonism assays utilized the ΔagrD reporter strain, with 2 μL of 100 μM AIP (final concentration 1 μM) as a positive control and 2 μL of DMSO as a negative control. Antagonism assays utilized the EGD-e reporter strain, with 2 μL of DMSO as a positive control. In both assays, wells containing only BHI media served as negative controls for normalization. An overnight culture of bacteria was diluted 1:50 in fresh BHI, then 198 μL were transferred to each well (excluding the media control wells). Plates were then incubated at 37° C. for 24 hours with shaking at 200 rpm. Fluorescence of GFP (excitation at 500 nm, emission at 540 nm) and OD600 of each well was measured using BioTek Synergy 2 plate reader. Measurements were processed by subtracting background fluorescence (BHI media), correcting by OD600, and the normalizing using the 1 μM AIP or the DMSO control for the agonism and antagonism assays, respectively. Non-linear regression curves were fitted to the data sets in GraphPad Prism 7 by using variable slope (four-parameter) dose-response analysis to obtain potency, efficacy, and statistical information about the activity of tested peptides. Each peptide was tested with three technical replicates and three biological replicates. All data derived from fluorescent reporter strains are represented with data points signifying the mean and error bars signifying the standard deviation from all replicates.
# Preparation and Validation of Listeria agr Reporter Strains. In order to facilitate profiling the native AIP and its analogs for agr activity, L. monocytogenes agr GFP reporters were designed and constructed as described above (see Materials and General Methods). Briefly, a plasmid containing the agr promoter region upstream of gfp was transformed into wild-type (EGD-e) and ΔagrD L. monocytogenes strains. The wild-type reporter naturally produces its own AIP and is able to activate AgrC, which may subsequently phosphorylate AgrA for productive binding to DNA and triggering the production of GFP (FIG. 1A). The ΔagrD reporter, lacking the ability to produce its own AIP and thereby activate AgrC, is unable to trigger substantial production of GFP. However, adding exogenous AIP to the ΔagrD reporter results in an increase of fluorescence, indicating agr activity has been restored.
# [1] = read-out: Max Activation Observed
# Chain of L. monocytogenes AgrC (Q8YAR5 entry or part of it): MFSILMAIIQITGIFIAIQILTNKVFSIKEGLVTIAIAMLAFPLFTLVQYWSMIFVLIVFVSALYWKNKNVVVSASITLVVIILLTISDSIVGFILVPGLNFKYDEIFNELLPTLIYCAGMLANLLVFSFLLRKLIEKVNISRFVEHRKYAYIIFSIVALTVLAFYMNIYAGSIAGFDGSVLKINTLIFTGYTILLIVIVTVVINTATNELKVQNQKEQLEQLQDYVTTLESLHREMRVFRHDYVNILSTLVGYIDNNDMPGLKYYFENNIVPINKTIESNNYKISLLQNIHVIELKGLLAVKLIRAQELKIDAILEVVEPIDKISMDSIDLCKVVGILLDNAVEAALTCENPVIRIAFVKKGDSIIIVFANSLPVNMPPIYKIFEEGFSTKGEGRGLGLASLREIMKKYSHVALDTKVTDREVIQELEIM
Structure (SMILES),Emax (read-out: Max Activation),other results
"CSCC[C@@H]1NC(=O)[C@H](Cc2ccccc2)NC(=O)[C@@H](NC(=O)[C@H](C)N)CSC(=O)[C@H](C(C)C)NC(=O)[C@@H](Cc2ccccc2)NC1=O [AIP F5dF, A-(C-F-M-dF-V)] (H-ACFM[dF]V; thioester 2-C; N-terminus assumed)",–,loss in potency (agonism): two orders of magnitude; Emax [1]: 72.3%; agonism activity (in words) (ΔagrD reporter): maintain some agonism activity
"CC(C)[C@@H]1NC(=O)[C@H](Cc2ccccc2)NC(=O)[C@H](C)NC(=O)[C@H](Cc2ccccc2)NC(=O)[C@@H](NC(=O)[C@H](C)N)CSC1=O [AIP M4A, A-(C-F-A-F-V)] (H-ACFAFV; thioester 2-C; N-terminus assumed)",–,Emax [1]: 53.5%; EC50 (in words) (ΔagrD reporter): low micromolar range; agonism activity (in words) (ΔagrD reporter): decreased potency and agonism compared to the native AIP
"CC(C)[C@@H]1NC(=O)[C@H](Cc2ccccc2)NC(=O)[C@@H](C)NC(=O)[C@H](Cc2ccccc2)NC(=O)[C@@H](NC(=O)[C@H](C)N)CSC1=O [AIP M4dA, A-(C-F-dA-F-V)] (H-ACF[dA]FV; thioester 2-C; N-terminus assumed)",–,"improved potency (agonism, relative to AIP M4A): about four-fold; Emax [1]: 82%"
"CSCC[C@@H]1NC(=O)[C@H](Cc2ccccc2)NC(=O)[C@@H](NC(=O)[C@H](C)N)CSC(=O)[C@H](C)NC(=O)[C@H](Cc2ccccc2)NC1=O [AIP V6A, A-(C-F-M-F-A)] (H-ACFMFA; thioester 2-C; N-terminus assumed)",69%,Emax [1]: 69%; agonism activity (in words) (ΔagrD reporter): decreased potency and agonism compared to the native AIP
"CSCC[C@@H]1NC(=O)[C@H](Cc2ccccc2)NC(=O)[C@@H](NC(=O)[C@H](C)N)CSC(=O)[C@@H](C(C)C)NC(=O)[C@H](Cc2ccccc2)NC1=O [AIP V6dV, A-(C-F-M-F-dV)] (H-ACFMF[dV]; thioester 2-C; N-terminus assumed)",–,Emax [1]: 72.9%
"CSCC[C@@H]1NC(=O)[C@H](Cc2ccccc2)NC(=O)[C@@H](NC(C)=O)CSC(=O)[C@H](C(C)C)NC(=O)[C@H](Cc2ccccc2)NC1=O [Ac-5-mer, Ac-(C-F-M-F-V)] (Ac-CFMFV; thioester 1-C)",75.3%,–
"CSCC[C@@H]1NC(=O)[C@H](Cc2ccccc2)NC(=O)[C@@H](N)CSC(=O)[C@H](C(C)C)NC(=O)[C@H](Cc2ccccc2)NC1=O [Compound 5-mer, (C-F-M-F-V)] (H-CFMFV; thioester 1-C)",110%,loss in potency (agonism): ten-fold; agonism activity (in words) (ΔagrD reporter): fully maintained its agonism activity
"CSCC[C@@H]1NC(=O)[C@H](Cc2ccccc2)NC(=O)[C@@H](NC(=O)[C@H](C)NC(=O)[C@@H](N)CCCCN)CSC(=O)[C@H](C(C)C)NC(=O)[C@H](Cc2ccccc2)NC1=O [Compound 7-mer, K-A-(C-F-M-F-V)] (H-KACFMFV; thioester 3-C; N-terminus assumed)",64.6%,–
"CSCC[C@@H]1NC(=O)[C@H](Cc2ccccc2)NC(=O)[C@@H](NC(=O)[C@H](C)NC(=O)[C@H](CCCCN)NC(=O)[C@@H](N)CO)CSC(=O)[C@H](C(C)C)NC(=O)[C@H](Cc2ccccc2)NC1=O [Compound 8-mer, S-K-A-(C-F-M-F-V)] (H-SKACFMFV; thioester 4-C; N-terminus assumed)",71.5%,–
"CSCC[C@@H]1NC(=O)[C@H](Cc2ccccc2)NC(=O)[C@@H](NC(=O)[C@H](C)NC(=O)[C@H](CCCCN)NC(=O)[C@H](CO)NC(=O)[C@@H](N)CCSC)CSC(=O)[C@H](C(C)C)NC(=O)[C@H](Cc2ccccc2)NC1=O [Compound 9-mer, M-S-K-A-(C-F-M-F-V)] (H-MSKACFMFV; thioester 5-C; N-terminus assumed)",93.6%,–
"CSCC[C@@H]1NC(=O)[C@H](Cc2ccccc2)NC(=O)[C@@H](NC(=O)[C@H](C)NC(=O)[C@H](CCCCN)NC(=O)[C@H](CO)NC(=O)[C@H](CCSC)NC(=O)[C@@H](N)CO)CSC(=O)[C@H](C(C)C)NC(=O)[C@H](Cc2ccccc2)NC1=O [Compound 10-mer, S-M-S-K-A-(C-F-M-F-V)] (H-SMSKACFMFV; thioester 6-C; N-terminus assumed)",110%,–
"CSCC[C@@H]1NC(=O)[C@H](Cc2ccccc2)NC(=O)[C@@H](NC(=O)[C@H](C)NC(=O)[C@H](CCCCN)NC(=O)[C@H](CO)NC(=O)[C@H](CCSC)NC(=O)[C@H](CO)NC(=O)[C@@H](N)CO)CSC(=O)[C@H](C(C)C)NC(=O)[C@H](Cc2ccccc2)NC1=O [Compound 11-mer, S-S-M-S-K-A-(C-F-M-F-V)] (H-SSMSKACFMFV; thioester 7-C; N-terminus assumed)",111%,–
"CSCC[C@H](NC(=O)[C@H](CO)NC(=O)[C@H](CO)NC(=O)[C@@H](N)CC(=O)O)C(=O)N[C@@H](CO)C(=O)N[C@@H](CCCCN)C(=O)N[C@@H](C)C(=O)N[C@H]1CSC(=O)[C@H](C(C)C)NC(=O)[C@H](Cc2ccccc2)NC(=O)[C@H](CCSC)NC(=O)[C@H](Cc2ccccc2)NC1=O [Compound 12-mer, D-S-S-M-S-K-A-(C-F-M-F-V)] (H-DSSMSKACFMFV; thioester 8-C; N-terminus assumed)",116%,–
"CSCC[C@H](NC(=O)[C@H](CO)NC(=O)[C@H](CO)NC(=O)[C@H](CC(=O)O)NC(=O)[C@H](C)N)C(=O)N[C@@H](CO)C(=O)N[C@@H](CCCCN)C(=O)N[C@@H](C)C(=O)N[C@H]1CSC(=O)[C@H](C(C)C)NC(=O)[C@H](Cc2ccccc2)NC(=O)[C@H](CCSC)NC(=O)[C@H](Cc2ccccc2)NC1=O [Compound 13-mer, A-D-S-S-M-S-K-A-(C-F-M-F-V)] (H-ADSSMSKACFMFV; thioester 9-C; N-terminus assumed)",108%,–
"CSCC[C@H](NC(=O)[C@H](CO)NC(=O)[C@H](CO)NC(=O)[C@H](CC(=O)O)NC(=O)[C@H](C)NC(=O)[C@@H](N)C(C)C)C(=O)N[C@@H](CO)C(=O)N[C@@H](CCCCN)C(=O)N[C@@H](C)C(=O)N[C@H]1CSC(=O)[C@H](C(C)C)NC(=O)[C@H](Cc2ccccc2)NC(=O)[C@H](CCSC)NC(=O)[C@H](Cc2ccccc2)NC1=O [Compound 14-mcr, V-A-D-S-S-M-S-K-A-(C-F-M-F-V)] (H-VADSSMSKACFMFV; thioester 10-C; N-terminus assumed)",105%,–
"CSCC[C@H](NC(=O)[C@H](CO)NC(=O)[C@H](CO)NC(=O)[C@H](CC(=O)O)NC(=O)[C@H](C)NC(=O)[C@@H](NC(=O)[C@@H](N)CCCCN)C(C)C)C(=O)N[C@@H](CO)C(=O)N[C@@H](CCCCN)C(=O)N[C@@H](C)C(=O)N[C@H]1CSC(=O)[C@H](C(C)C)NC(=O)[C@H](Cc2ccccc2)NC(=O)[C@H](CCSC)NC(=O)[C@H](Cc2ccccc2)NC1=O [Compound 15-mer, K-V-A-D-S-S-M-S-K-A-(C-F-M-F-V)] (H-KVADSSMSKACFMFV; thioester 11-C; N-terminus assumed)",122%,–
"CC(=O)N[C@H]1CSC(=O)[C@H](C(C)C)NC(=O)[C@H](Cc2ccccc2)NC(=O)CNC(=O)[C@H](C(C)C)NC1=O [L. grandensis tr AIP, Ac-(C-V-G-F-V), reference compound] (Ac-CVGFV; thioester 1-C)",10.1%,–
"CSCC[C@@H]1NC(=O)[C@H](CO)NC(=O)[C@@H](NC(=O)[C@H](C)N)CSC(=O)[C@H](C)NC(=O)[C@H](Cc2ccccc2)NC1=O [L. grayi AIP, A-(C-S-M-F-A), reference compound] (H-ACSMFA; thioester 2-C; N-terminus assumed)",10.7%,–
"CC(C)C[C@@H]1NC(=O)CNC(=O)[C@H](C(C)C)NC(=O)[C@@H](NC(=O)[C@@H](N)CO)CSC(=O)[C@H](CO)NC1=O [L. kieliensis AIP, S-(C-V-G-L-S), reference compound] (H-SCVGLS; thioester 2-C; N-terminus assumed)",10.4%,–
"CC[C@H](C)[C@@H]1NC(=O)[C@H](CC(C)C)NC(=O)[C@H](Cc2ccccc2)NC(=O)[C@@H](NC(=O)[C@@H](N)CO)CSC(=O)[C@H](Cc2ccccc2)NC1=O [L. newyorkensis AIP, S-(C-F-L-I-F), reference compound] (H-SCFLIF; thioester 2-C; N-terminus assumed)",23.6%,"agonism or antagonism activity compared to vehicle (FIG. 1B) (10 μM, wild-type reporter or ΔagrD reporter): minimal efficacy"
